Results on two compounds are retold here after ChEMBL document CHEMBL5126675, “Recent Discovery of PARP7 Inhibitors as Anticancer Agents” (ACS Med Chem Lett, 2022).

Broadly, the IC50 is the concentration needed to halve the response being measured. High values mean weaker potency, low ones greater potency.

A short description of series [1]: Oral bioavailability in mouse at 100 mg/kg administered as single dose. Type of series: ADME, organism-based. Conditions: in vivo.
Series [2] addresses T1, Protein mono-ADP-ribosyltransferase TIPARP (Homo sapiens, UniProt Q7Z3E1).
T1 sequence (Q7Z3E1 whole entry): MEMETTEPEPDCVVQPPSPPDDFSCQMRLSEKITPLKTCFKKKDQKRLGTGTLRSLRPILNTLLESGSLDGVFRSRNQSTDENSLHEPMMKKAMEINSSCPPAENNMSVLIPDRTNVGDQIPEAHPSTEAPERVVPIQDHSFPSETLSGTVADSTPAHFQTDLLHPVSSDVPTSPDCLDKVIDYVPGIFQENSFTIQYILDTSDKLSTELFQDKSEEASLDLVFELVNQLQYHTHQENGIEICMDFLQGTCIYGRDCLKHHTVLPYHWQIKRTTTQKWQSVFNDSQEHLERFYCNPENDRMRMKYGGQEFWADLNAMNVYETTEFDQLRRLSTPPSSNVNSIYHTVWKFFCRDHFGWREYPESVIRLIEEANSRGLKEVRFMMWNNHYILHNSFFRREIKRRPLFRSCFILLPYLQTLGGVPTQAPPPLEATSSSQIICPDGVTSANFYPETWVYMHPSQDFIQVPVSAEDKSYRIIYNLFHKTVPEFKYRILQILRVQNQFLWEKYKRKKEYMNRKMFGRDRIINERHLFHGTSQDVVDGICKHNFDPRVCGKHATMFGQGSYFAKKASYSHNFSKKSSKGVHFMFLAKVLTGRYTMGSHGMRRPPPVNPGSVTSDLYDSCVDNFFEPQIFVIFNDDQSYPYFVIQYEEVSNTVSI
The series can be described thus: Inhibition of PARP7 (unknown origin) by HTRF assay. For orientation: In TR-FRET formats the signal depends on donor and acceptor labels being close together.

In the case of `C[C@@H](COCCC(=O)N1CCN2c3ncc(Cl)cc3OCC[C@@H]2C1)Oc1cn[nH]c(=O)c1C(F)(F)F`, in series [1], the bioavailability was 106%. In addition, the IC50 in series [2] came out at 1.01 nM.

`C[C@@H](COCCC(=O)N1CCN2c3ncc(C(F)(F)F)cc3OC[C@@H]2C1)Oc1cn[nH]c(=O)c1C(F)(F)F`: the bioavailability in series [1] was determined as 121%. This compound also gave an IC50 in series [2] of 1.24 nM.
